From US10669269B2, “Substituted N-(1H-indazol-4-yl)imidazo[1,2-a]pyridine-3-carboxamide compounds as type III receptor tyrosine kinase inhibitors” (ARRAY BIOPHARMA INC., priority 2010, dated 2020)
Counter-ions that a name gives are not always drawn.

Legend:
c-KIT = molecular target: T1, c-KIT (Homo sapiens, UniProt P10721); assay: c-KIT Cell-Based Assay (Example D); details: averaged IC50; phospho-c-KIT in M-07e cells stimulated with 150 ng/ml recombinant human SCF; read-out: cKIT Cell ELISA IC50
T1 construct: M-07e cells (human acute megakaryoblastic leukemia cell line) were serum-starved for 4 hours; endogenous in cells; host or cells: M-07e cells (human acute megakaryoblastic leukemia cell line)
T1 sequence (P10721 26-976): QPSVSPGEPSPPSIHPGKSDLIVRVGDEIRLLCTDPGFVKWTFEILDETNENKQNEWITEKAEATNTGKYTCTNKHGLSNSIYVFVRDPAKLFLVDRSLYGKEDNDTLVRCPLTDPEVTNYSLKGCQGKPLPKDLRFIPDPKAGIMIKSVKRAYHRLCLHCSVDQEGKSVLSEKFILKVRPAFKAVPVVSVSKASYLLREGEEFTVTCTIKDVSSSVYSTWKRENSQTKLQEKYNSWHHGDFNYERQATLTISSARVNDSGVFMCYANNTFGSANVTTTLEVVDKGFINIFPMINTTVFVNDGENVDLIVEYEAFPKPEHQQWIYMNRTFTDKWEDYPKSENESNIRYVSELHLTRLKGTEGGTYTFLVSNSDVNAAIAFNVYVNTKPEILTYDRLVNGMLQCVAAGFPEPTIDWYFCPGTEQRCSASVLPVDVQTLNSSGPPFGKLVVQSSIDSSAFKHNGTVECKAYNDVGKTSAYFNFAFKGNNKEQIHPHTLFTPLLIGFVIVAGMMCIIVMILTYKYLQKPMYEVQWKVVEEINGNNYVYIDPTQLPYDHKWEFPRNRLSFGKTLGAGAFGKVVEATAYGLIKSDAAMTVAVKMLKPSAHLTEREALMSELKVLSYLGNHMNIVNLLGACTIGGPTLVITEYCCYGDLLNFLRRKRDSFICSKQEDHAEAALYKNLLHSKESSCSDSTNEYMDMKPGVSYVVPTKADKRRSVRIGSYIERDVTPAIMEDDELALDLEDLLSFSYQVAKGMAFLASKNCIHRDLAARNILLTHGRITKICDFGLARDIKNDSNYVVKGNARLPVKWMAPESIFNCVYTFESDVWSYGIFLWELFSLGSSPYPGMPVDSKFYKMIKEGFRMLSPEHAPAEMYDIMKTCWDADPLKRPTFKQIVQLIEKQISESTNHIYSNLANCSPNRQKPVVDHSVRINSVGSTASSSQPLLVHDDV
Method in brief: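 M-07e cells serum-starved 4 h, treated 1 h with compound (9-point, 3-fold dilutions, top dose typically 5,000 nM) at 37° C, then stimulated 4 min with 150 ng/ml SCF. Phospho-c-KIT in lysates quantified by ELISA against a standard curve; IC50 from 4-parameter logistic fit as 50% of control.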

PDGFR beta [1] = molecular target: T2, PDGFR beta (Homo sapiens, UniProt P09619); assay: Phospho PDGFR Cell Assay, sandwich ELISA (Example A); format: cell-based; details: averaged IC50, PDGFR beta phosphorylation in HS27 human fibroblast cell line, PDGF-BB stimulation 5 minutes
T2 construct: endogenous in cells; host or cells: HS27 human fibroblast cell line
T2 sequence (P09619 33-1106): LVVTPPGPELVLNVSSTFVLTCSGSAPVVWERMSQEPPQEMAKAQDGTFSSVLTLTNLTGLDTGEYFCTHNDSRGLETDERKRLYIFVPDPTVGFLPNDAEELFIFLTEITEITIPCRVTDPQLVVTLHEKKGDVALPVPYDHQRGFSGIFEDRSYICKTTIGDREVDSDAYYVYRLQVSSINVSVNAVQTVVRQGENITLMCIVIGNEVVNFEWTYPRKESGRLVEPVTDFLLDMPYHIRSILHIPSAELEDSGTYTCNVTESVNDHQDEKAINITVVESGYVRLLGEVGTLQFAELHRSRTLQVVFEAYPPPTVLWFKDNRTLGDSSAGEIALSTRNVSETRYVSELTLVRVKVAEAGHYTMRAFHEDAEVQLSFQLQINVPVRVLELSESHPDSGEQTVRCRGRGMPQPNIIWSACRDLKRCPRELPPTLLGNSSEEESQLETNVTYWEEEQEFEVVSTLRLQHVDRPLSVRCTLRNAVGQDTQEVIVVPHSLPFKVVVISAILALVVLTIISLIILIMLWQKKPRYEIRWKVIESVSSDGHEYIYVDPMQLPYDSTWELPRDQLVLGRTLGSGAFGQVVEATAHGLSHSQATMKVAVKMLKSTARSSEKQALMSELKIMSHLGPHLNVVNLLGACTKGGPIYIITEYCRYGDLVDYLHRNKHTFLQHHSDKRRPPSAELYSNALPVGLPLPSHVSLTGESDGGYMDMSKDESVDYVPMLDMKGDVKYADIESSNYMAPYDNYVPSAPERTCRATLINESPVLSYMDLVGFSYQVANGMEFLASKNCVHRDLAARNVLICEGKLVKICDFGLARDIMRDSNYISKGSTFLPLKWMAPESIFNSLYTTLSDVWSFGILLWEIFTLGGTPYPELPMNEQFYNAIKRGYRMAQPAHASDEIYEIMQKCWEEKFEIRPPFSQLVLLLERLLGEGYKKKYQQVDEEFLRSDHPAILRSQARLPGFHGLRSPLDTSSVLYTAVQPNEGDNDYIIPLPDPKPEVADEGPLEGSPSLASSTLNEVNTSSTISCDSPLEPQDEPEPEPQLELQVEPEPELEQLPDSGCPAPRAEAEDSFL
Protocol: Compounds were screened for inhibition of PDGFR beta phosphorylation in the HS27 human fibroblast cell line. Cells were seeded into a 96 well tissue culture plate, then incubated overnight in a 37° C., 5% CO2 incubator. The following day, cells were treated for one hour with test compound dilutions. After stimulation with PDGF-BB ligand for 5 minutes, cells were lysed and added to a sandwich ELISA plate from R&D Systems to detect levels of phospho PDGFR beta. A standard 4-parameter logistic model was fit to the inhibitor dose response curves, with the IC50 being defined as the concentration of inhibitor giving 50 percent of control (POC).

cFMS = molecular target: T3, cFMS (Homo sapiens, UniProt P07333); assay: cFMS Cell-Based Assay (Example C); details: averaged IC50; phospho-cFMS in THP-1 cells stimulated with 250 ng/mL recombinant human MCSF; read-out: cFMS Cell ELISA IC50
T3 construct: THP-1 cells (human acute monocytic leukemia cell line) were serum-starved for 4 hours; endogenous in cells; host or cells: THP-1 cells (human acute monocytic leukemia cell line)
T3 sequence (P07333 20-972): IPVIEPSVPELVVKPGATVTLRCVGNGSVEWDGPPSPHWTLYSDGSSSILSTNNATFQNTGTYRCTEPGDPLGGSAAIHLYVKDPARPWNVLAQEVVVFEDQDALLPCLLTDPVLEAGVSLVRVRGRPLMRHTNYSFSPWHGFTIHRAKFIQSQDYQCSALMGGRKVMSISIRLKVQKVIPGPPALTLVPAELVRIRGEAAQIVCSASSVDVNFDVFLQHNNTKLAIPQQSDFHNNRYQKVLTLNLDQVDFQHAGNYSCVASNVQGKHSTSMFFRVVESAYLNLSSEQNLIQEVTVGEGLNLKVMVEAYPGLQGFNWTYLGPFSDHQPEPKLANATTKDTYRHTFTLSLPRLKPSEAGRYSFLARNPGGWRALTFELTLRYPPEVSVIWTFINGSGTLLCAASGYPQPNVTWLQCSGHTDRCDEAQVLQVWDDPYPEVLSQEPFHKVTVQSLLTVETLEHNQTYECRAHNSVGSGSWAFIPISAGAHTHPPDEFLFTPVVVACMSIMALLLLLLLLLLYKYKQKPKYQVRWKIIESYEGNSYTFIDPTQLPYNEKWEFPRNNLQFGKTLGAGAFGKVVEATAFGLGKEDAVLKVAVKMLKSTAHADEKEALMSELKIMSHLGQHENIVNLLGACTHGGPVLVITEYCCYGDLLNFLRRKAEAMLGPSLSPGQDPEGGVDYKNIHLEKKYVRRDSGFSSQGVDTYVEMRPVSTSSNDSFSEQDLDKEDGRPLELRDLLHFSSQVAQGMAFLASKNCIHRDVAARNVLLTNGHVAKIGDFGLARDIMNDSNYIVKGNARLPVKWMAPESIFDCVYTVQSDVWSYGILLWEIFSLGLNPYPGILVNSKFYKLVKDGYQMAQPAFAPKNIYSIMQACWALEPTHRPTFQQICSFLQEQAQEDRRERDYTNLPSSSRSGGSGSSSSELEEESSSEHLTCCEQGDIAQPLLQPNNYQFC
Method in brief: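 THP-1 cells serum-starved 4 h, then treated 1 h with compound (9-point, 3-fold series, top dose typically 5,000 nM) at 37 °C, then stimulated 1 min with 250 ng/mL recombinant human MCSF. Phospho-cFMS in lysates quantified by capture ELISA against a purified phospho-protein standard curve. IC50 at 50 percent of control, 4-parameter logistic fit.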

PDGFR beta [2] = molecular target: T2, PDGFR beta; assay: Phospho PDGFR LICOR Cell Assay (Example B); format: cell-based; details: averaged IC50; PDGFR beta phosphorylation in HS27 human fibroblast cell line, PDGF-BB stimulation 10 minutes, normalized to total ERK
Method in brief: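 HS27 human fibroblasts pretreated 1 h with compound, then stimulated 10 min with PDGF-BB. Fixed, permeabilized cells immunostained for phospho-PDGFRβ and total ERK and read by two-colour infrared fluorescence, with phospho signal normalized to ERK. IC50 = 50% of control from 4-parameter logistic fit.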

SMILES | IC50 (c-KIT) [nM] | IC50 (PDGFR beta [1]) [nM] | IC50 (cFMS) [nM] | IC50 (PDGFR beta [2]) [nM]
Cc1nn(Cc2cccc(C(C)C)n2)c2cccc(NC(=O)c3cnc4cc(OCCN5CC6(CNC6)C5)ccn34)c12 [Example 3, 7-(2-(2,6-diazaspiro[3.3]heptan-2-yl)ethoxy)-N-(1-((6-isopropylpyridin-2-yl)methyl)-3-methyl-1H-indazol-4-yl)imidazo[1,2-a]pyridine-3-carboxamide trihydrochloride] | 176 | 138 | 70.4 | 10
Cc1nn(Cc2cccc(C(C)C)n2)c2cccc(NC(=O)c3cnc4cc(OCCN5CC6(CN(C)C6)C5)ccn34)c12 [Example 4, N-(1-((6-isopropylpyridin-2-yl)methyl)-3-methyl-1H-indazol-4-yl)-7-(2-(6-methyl-2,6-diazaspiro[3.3]heptan-2-yl)ethoxy)imidazo[1,2-a]pyridine-3-carboxamide] | 81.6 | 27.9 | 29.4 | 10.7
Cc1nn(Cc2cccc(C(C)C)n2)c2cccc(NC(=O)c3cnc4cc(OCCN5CC6(COC6)C5)ccn34)c12 [Example 5, 7-(2-(2-oxa-6-azaspiro[3.3]heptan-6-yl)ethoxy)-N-(1-((6-isopropylpyridin-2-yl)methyl)-3-methyl-1H-indazol-4-yl)imidazo[1,2-a]pyridine-3-carboxamide] | 82.8 | 20.5 | 27.9 | 22
Cc1nn(Cc2csc(C(C)C)n2)c2cccc(NC(=O)c3cnc4cc(OCCN5CC6(COC6)C5)ccn34)c12 [Example 14, 7-(2-(2-oxa-6-azaspiro[3.3]heptan-6-yl)ethoxy)-N-(1-((2-isopropylthiazol-4-yl)methyl)-3-methyl-1H-indazol-4-yl)imidazo[1,2-a]pyridine-3-carboxamide] | 96.4 | 37.7 | 20.6 | 36.6
Cc1nn(Cc2cccc(C3CC3)n2)c2cccc(NC(=O)c3cnc4cc(OCCN5CCN(C)C(C)(C)C5)ccn34)c12 [Example 19, N-(1-((6-cyclopropylpyridin-2-yl)methyl)-3-methyl-1H-indazol-4-yl)-7-(2-(3,3,4-trimethylpiperazin-1-yl)ethoxy)imidazo[1,2-a]pyridine-3-carboxamide] | 39.1 | 43.2 | 9.4 | 247
Cc1nn(Cc2cccc(C(C)C)n2)c2cccc(NC(=O)c3cnc4cc(OCCN5CCN(C)[C@@H](C)C5)ccn34)c12 [Example 25, (S)-7-(2-(3,4-dimethylpiperazin-1-yl)ethoxy)-N-(1-((6-isopropylpyridin-2-yl)methyl)-3-methyl-1H-indazol-4-yl)imidazo[1,2-a]pyridine-3-carboxamide] | 51.4 | 41.8 | 23.8 | 18
Cc1nn(Cc2cccc(C3CC3)n2)c2cccc(NC(=O)c3cnc4cc(OCCN5CCN(C)[C@@H](C)C5)ccn34)c12 [Example 26, (S)—N-(1-((6-cyclopropylpyridin-2-yl)methyl)-3-methyl-1H-indazol-4-yl)-7-(2-(3,4-dimethylpiperazin-1-yl)ethoxy)imidazo[1,2-a]pyridine-3-carboxamide dihydrochloride] | 27.9 | 29.6 | 13.7 | 63.2
Cc1nn(Cc2cccc(C3CC3)n2)c2cccc(NC(=O)c3cnc4cc(OCCN5CCN(C)[C@H](C)C5)ccn34)c12 [Example 27, (R)—N-(1-((6-cyclopropylpyridin-2-yl)methyl)-3-methyl-1H-indazol-4-yl)-7-(2-(3,4-dimethylpiperazin-1-yl)ethoxy)imidazo[1,2-a]pyridine-3-carboxamide dihydrochloride] | 36.2 | 69.5 | 13.8 | 72.6
Cc1cccc(CCn2nc(C)c3c(NC(=O)c4cnc5cc(OCCN6CCN(C)[C@@H](C)C6)ccn45)cccc32)n1 [Example 42, (S)-7-(2-(3,4-dimethylpiperazin-1-yl)ethoxy)-N-(3-methyl-1-(2-(6-methylpyridin-2-yl)ethyl)-1H-indazol-4-yl)imidazo[1,2-a]pyridine-3-carboxamide] |  | ≥ 1000 |  | 4800

Further molecules by falling IC50 (PDGFR beta [1]), results first:

IC50 (c-KIT) [nM] | IC50 (PDGFR beta [1]) [nM] | IC50 (cFMS) [nM] | IC50 (PDGFR beta [2]) [nM] | SMILES
166 | 347 | 13.4 | 113 | Cc1nn(Cc2cccc(C(F)(F)F)n2)c2cccc(NC(=O)c3cnc4cc(OCCN5CCN(C(C)C)CC5)ccn34)c12 [Example 45, 7-(2-(4-isopropylpiperazin-1-yl)ethoxy)-N-(3-methyl-1-((6-(trifluoromethyl)pyridin-2-yl)methyl)-1H-indazol-4-yl)imidazo[1,2-a]pyridine-3-carboxamide]
63.4 | 116 | 22.7 | 794 | Cc1nn(Cc2ccc(C(F)(F)F)cn2)c2cccc(NC(=O)c3cnc4cc(OCCN5CCN(C(C)C)CC5)ccn34)c12 [Example 44, 7-(2-(4-isopropylpiperazazin-1-yl)ethoxy)-N-(3-methyl-1-((5-(trifluoromethyl)pyridin-2-yl)methyl)-1H-indazol-4-yl)imidazo[1,2-a]pyridine-3-carboxamide]
54.2 | 85 | 11 | 313 | CCN1CCN(CCOc2ccn3c(C(=O)Nc4cccc5c4c(C)nn5Cc4cccc(C5CC5)n4)cnc3c2)CC1 [Example 17, N-(1-((6-cyclopropylpyridin-2-yl)methyl)-3-methyl-1H-indazol-4-yl)-7-(2-(4-ethylpiperazin-1-yl)ethoxy)imidazo[1,2-a]pyridine-3-carboxamide]
81.8 | 59.9 | 10.2 | 674 | Cc1nn(Cc2cccc(C3CC3)n2)c2cccc(NC(=O)c3cnc4cc(OCCN5CCOCC5)ccn34)c12 [Example 18, N-(1-((6-cyclopropylpyridin-2-yl)methyl)-3-methyl-1H-indazol-4-yl)-7-(2-morpholinoethoxy)imidazo[1,2-a]pyridine-3-carboxamide]
57 | 33.5 | 40.9 | 6.3 | Cc1nn(Cc2cccc(C(C)C)n2)c2cccc(NC(=O)c3cnc4cc(OCCN5CCN(C(C)C)CC5)ccn34)c12 [Example 6, 7-(2-(4-Isopropylpiperazin-1-yl)ethoxy)-N-(1-((6-isopropylpyridin-2-yl)methyl)-3-methyl-1H-indazol-4-yl)imidazo[1,2-a]pyridine-3-carboxamide]
53.3 | 29.7 | 16.1 | 12.9 | Cc1nn(Cc2cccc(C(C)C)n2)c2cccc(NC(=O)c3cnc4cc(OCCN5CCOCC5)ccn34)c12 [Example 1, N-(1-((6-isopropylpyridin-2-yl)methyl)-3-methyl-1H-indazol-4-yl)-7-(2-morpholinoethoxy)imidazo[1,2-a]pyridine-3-carboxamide]
34.8 | 28.1 | 13.9 | 103 | Cc1nn(Cc2cccc(C3CC3)n2)c2cccc(NC(=O)c3cnc4cc(OCCN5CCN(C(C)C)CC5)ccn34)c12 [Example 16, N-(1-((6-cyclopropylpyridin-2-yl)methyl)-3-methyl-1H-indazol-4-yl)-7-(2-(4-isopropylpiperazin-1-yl)ethoxy)imidazo[1,2-a]pyridine-3-carboxamide]
41.1 | 9.4 | 27.7 | 23.7 | CCN1CCN(CCOc2ccn3c(C(=O)Nc4cccc5c4c(C)nn5Cc4cccc(C(C)C)n4)cnc3c2)CC1 [Example 2, 7-(2-(4-Ethylpiperazin-1-yl)ethoxy)-N-(1-((6-isopropylpyridin-2-yl)methyl)-3-methyl-1H-indazol-4-yl)imidazo[1,2-a]pyridine-3-carboxamide]
35.5 | 5.9 | 14 | 9.9 | Cc1nn(Cc2cccc(C(C)C)n2)c2cccc(NC(=O)c3cnc4cc(OCCN5CCN(C)[C@H](C)C5)ccn34)c12 [Example 28, (R)-7-(2-(3,4-dimethylpiperazin-1-yl)ethoxy)-N-(1-((6-isopropylpyridin-2-yl)methyl)-3-methyl-1H-indazol-4-yl)imidazo[1,2-a]pyridine-3-carboxamide]
